In US12077501B2, “Compounds and compositions for intracellular delivery of agents” (ModernaTX, Inc., priority 2017, dated 2024):

How the values were obtained:
[1] = Particle size and polydispersity index of nanoparticle compositions (Zetasizer Nano ZS); type: physicochemical; conditions: Table 1c; nanoparticle compositions
Protocol: A Zetasizer Nano ZS (Malvem Instruments Ltd, Malvem, Worcestershire, UK) can be used to determine the particle size, the polydispersity index (PDI) and the zeta potential of the nanoparticle compositions in 1×PBS in determining particle size and 15 mM PBS in determining zeta potential.

[2] = Encapsulation efficiency of RNA (QUANT-IT RIBOGREEN RNA assay); type: physicochemical; conditions: Table 1c; nanoparticle compositions
How it was run: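 Samples diluted to about 5 μg/mL RNA in TE buffer pH 7.5, treated with buffer or 2% Triton X-100 for 15 min at 37° C, then stained with RiboGreen (1:100). Fluorescence at about 480/520 nm, blank-subtracted; free RNA fraction is intact over Triton-disrupted signal.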

[3] = pKa of nanoparticle compositions; type: physicochemical; conditions: Table 1c
[4] = Lipid purity change after storage in EtOH for 96 h at 25 or 37 °C; type: physicochemical
How it was run: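 Lipid stability was assessed as purity after storage in ethanol for 96 h at 25 °C or 37 °C.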

[5] = tested on: hEPO expression; experiment: hEPO expression in CD-1 mice compared with MC3; type: in vivo; conditions: intravenous, 0.5 mpk, Table 7e
Source text: In contrast, hEPO expression in rats induced by administration of a nanoparticle composition including a compound according to one of formulae (I), (Ia1)-(Ia6), (Ib), (II), (IIa), (III), and (IIIa) was substantially […] than that measured for MC3. […] Tables 7c and 7d show additional protein expressions and clearance data from compositions with various compounds disclosed herein as compared to with MC3. Tables 7e, 7f and 7g show hEPO expression data in CD-1 mice at a dose of 0.5 mpk.

[6] = Lipid clearance: % dose remaining in liver of CD-1 mice; type: in vivo; conditions: intravenous, 0.5 mg/kg, CD-1 mouse, Table 8a
How it was run: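 Mice (CD-1) received nanoparticle compositions formulated with the disclosed compounds at 0.5 mpk. Expressed hEPO was then quantified, and clearance was assessed alongside.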

PDI [1] | Size (nm) [1] [nm] | EE (%) [2] [%] | pKa [3] | Lipid % change purity in EtOH, 25° C., 96 h [4] [%] | Lipid % change purity in EtOH, 37° C., 96 h [4] [%] | % Dose Remaining 24 hr [6] [%] | Structure (SMILES) | AUC (p/s*h) CD-1 mice 0.5 mpk [5] [p/s*h]
0.21 | 86.8 | 96.7 | 6.82 | 6.3 | 6.5 | 59.89 | CCCCCCCCCN(CCCCCCCCC)CCN(CCCCCCCCC)CC(=O)N1CCN(C(=O)C(C)N(CCCCCCCCC)CCCC(=O)OCCCCC)CC1 (stereo not drawn) [Compound 111, Pentyl 4-((1-(4-(N-(2-(dinonylamino)ethyl)-N-nonylglycyl)piperazin-1-yl)-1-oxopropan-2-yl)(nonyl)amino)butanoate] | 1.75E+08
0.17 | 73.8 | 97.1 | 6.53 | 4.5 | 9 | 0.10 | CCCCCCCCCCCCCCN(CCCOC(=O)CCCCCCCCC)CCC1CCN(C(=O)CN(CCCCCCCCC)CCN(CCCCCCCCC)CCCCCCCCC)CC1 [Compound 92, 3-((2-(1-(N-(2-(Dinonylamino)ethyl)-N-nonylglycyl)piperidin-4-yl)ethyl)(tetradecyl)amino)propyl decanoate] | 8.25E+07
0.16 | 79.1 | 98.5 | 7.48 | 0 | 2 | 34.01 | CCCCCCCCCN(CCCCCCCCC)CCN(CCCCCCCCC)CC(=O)N(C)CCN(C)C(=O)CN(CCCCCCCCC)CCCC(=O)OCCCCC [Compound 152, Pentyl 8,11-dimethyl-5,14,17-trinonyl-7,12-dioxo-5,8,11,14,17-pentaazahexacosanoate] | 1.09E+08
0.16 | 75.0 | 95.0 | 7.27 | 0 | 4.1 | 0.54 | CCCCCCCCCN(CCCCCCCCC)CCN(CCCCCCCCC)CC(=O)N1CCN(C(=O)CN(CCCCCCCCC)CCCCCOC(=O)OC)CC1 [Compound 109, 5-((2-(4-(N-(2-(Dinonylamino)ethyl)-N-nonylglycyl)piperazin-1-yl)-2-oxoethyl)(nonyl)amino)pentyl methyl carbonate] | 5.56E+07
0.21 | 82.9 | 97.6 | 6.74 | 1 | 2.3 | 9.19 | CCCCCCCCCCCCCCN(CCCCCC(=O)OCCCCCCC)CC(=O)N1CCN(C(=O)CN(CCCCCCCCC)CCN(CCCCCCCCC)CCCCCCCCC)CC1 [Compound 91, Heptyl 6-((2-(4-(N-(2-(dinonylamino)ethyl)-N-nonylglycyl)piperazin-1-yl)-2-oxoethyl)(tetradecyl)amino)hexanoate] | 3.22E+07
0.17 | 75.6 | 97.7 | 6.6 | 0 | 2.2 | 10.37 | CCCCCCCCCCCCCCN(CCCCCCCC(=O)OCCCCC)CCC1CCN(C(=O)CN(CCCCCCCCC)CCN(CCCCCCCCC)CCCCCCCCC)CC1 [Compound 93, Pentyl 8-((2-(1-(N-(2-(dinonylamino)ethyl)-N-nonylglycyl)piperidin-4-yl)ethyl)(tetradecyl)amino)octanoate] | 8.63E+07
